Results on nine molecules are retold here after US20040143007A1, “Malononitrile compounds and their use as pesticides” (priority 2001, published 2004).

Type in all cases: in vivo
Experiment [1] deals with Musca domestics (house fly). The experiment is described as follows: Pesticidal test against Musca domestics, treated filter paper with sucrose bait (Test Example 5). The following applies: active ingredient 500 ppm, 0.7 ml on filter paper, ten female adults, after 24 hours. Here is the method: Ten female adults of Musca domestics (house fly) were set free in the polyethylene cup, which was then kept covered. After 24 hours, their survival was examined to determine the mortality.

Experiment [2] relates to Blattalla germanica (German cockroach). The experiment can be described thus: Pesticidal test against Blattalla germanica, treated filter paper with sucrose bait (Test Example 6). The following applies: Blattella germanica, 144 h; active ingredient 500 ppm, 0.7 ml on filter paper; two male adults; after 6 days. The source says:
Two male adults of Blattalla germanica (German cockroach) were set free in the polyethylene cup, which was then kept covered. After 6 days, their survival was examined to determine the mortality.

In experiment [3] the test system is Culex pipiens pallens (common mosquito). The experiment is described as follows: Pesticidal test against Culex pipiens pallens, larvae in treated water (Test Example 7). The following applies: 24 h, 0.7 ml of 500 ppm test liquid in 100 ml water (active ingredient 3.5 ppm), twenty final-instar larvae, after 1 days.
Method: In 100 ml of ion-exchanged water, the test liquid had been prepared as described above, was added dropwise in an amount of 0.7 ml (the concentration of active ingredient was 3.5 ppm). Twenty final-instar larvae of Culex pipiens pallens (common mosquito) were set free in the solution. After 1 days, their survival was examined to determine the mortality.
Experiment [4] deals with Diabrotica undecimpunctata (southern corn rootworm). The experiment can be described thus: Pesticidal test against Diabrotica undecimpunctata, filter paper with corn seed and eggs (Test Example 4). The following applies: active ingredient 50 ppm, 1 ml on filter paper, 30 to 50 eggs, 25° C. How it is done:
One germinated seed of corn and 30 to 50 eggs of Diabrotica undecimpunctata (southern corn rootworm) was placed on the filter paper in the polyethylene cup, which was then kept covered and left in a room at 25° C. On the 6th day after, the number of surviving larvae of Diabrotica undecimpunctata was examined.

The term mortality denotes the share of the test organisms that died. A low value points to a weak lethal effect. With `N#CC(C#N)(Cc1ccc(SC(F)(F)F)cc1)CC1CCC1` [Compound 4, 2-(cyclobutylmethyl)-2-(4-(trifluoromethylthio)benzyl)malononitrile], the mortality at 500 ppm in experiment [1] and in experiment [2] was 100% in each case. Further, the mortality at 3.5 µg/mL in experiment [3] amounted to 100%.
Regarding `N#CC(C#N)(Cc1ccc(C(F)(F)F)cc1)CC1CCC1` [Compound 7, 2-(cyclobutylmethyl)-2-(4-(trifluoromethyl)benzyl)malononitrile], the mortality at 500 ppm in experiment [1] and in experiment [2] was 100% throughout. Also, the mortality at 3.5 µg/mL in experiment [3] worked out at 100%.
In experiment [1], `N#CC(C#N)(Cc1ccc(OC(F)(F)F)cc1)CC1CCC1` [Compound 3, 2-(cyclobutylmethyl)-2-(4-(trifluoromethoxy)benzyl)malononitrile] had a mortality at 500 ppm of 100%. For the same molecule, in experiment [3], the mortality at 3.5 µg/mL amounted to 100%.
In experiment [3], `N#Cc1ccc(CC(C#N)(C#N)CC2CC2(Cl)Cl)cc1` (stereo not drawn) [Compound 9, 2-(4-cyanobenzyl)-2-((2,2-dichlorocyclopropyl)methyl)malononitrile] showed a mortality at 3.5 µg/mL of 100%.
In turn, `N#CC(C#N)(Cc1ccc(OC(F)(F)F)cc1)CC1CC1(Cl)Cl` (stereo not drawn) [Compound 5, 2-((2,2-dichlorocyclopropyl)methyl)-2-(4-(trifluoromethoxy)benzyl)malononitrile] returned a mortality at 500 ppm in experiment [1] of 100%. The molecule further yielded a mortality at 3.5 µg/mL in experiment [3] of 100%.
In the case of `N#CC(C#N)(Cc1ccc(OC(F)(F)F)cc1)CC1CC1` [Compound 2, 2-(cyclopropylmethyl)-2-(4-(trifluoromethoxy)benzyl)malononitrile], the “number of surviving pests on the 6th day after” value in experiment [4] is given as 0. Also, the mortality at 500 ppm in experiment [1] and in experiment [2] was 100% throughout. Further, the mortality at 3.5 µg/mL in experiment [3] came out at 100%.
Turning to `N#CC(C#N)(Cc1ccc(C(F)(F)F)cc1)CC1CC1(Cl)Cl` (stereo not drawn) [Compound 10, 2-((2,2-dichlorocyclopropyl)methyl)-2-(4-(trifluoromethyl)benzyl)malononitrile], the mortality at 500 ppm in experiment [1] and in experiment [2] was 100% in each case. The same molecule returned a mortality at 3.5 µg/mL in experiment [3] of 100%.
Take `N#CC(C#N)(Cc1ccc(Cl)cc1)CC1CC1` [Compound 1, 2-(4-chlorobenzyl)-2-(cyclopropylmethyl)malononitrile]: in experiment [4], the “number of surviving pests on the 6th day after” value came out at 0. In addition, the mortality at 500 ppm in experiment [2] was 100%. Further, the mortality at 3.5 µg/mL in experiment [3] is 100%.
In the case of `N#CC(C#N)(Cc1ccc(C(F)(F)F)cc1)CC1CC1` [Compound 6, 2-(cyclopropylmethyl)-2-(4-(trifluoromethyl)benzyl)malononitrile], the mortality at 500 ppm in experiment [1] and in experiment [2] was 100% in each case. Moreover, in experiment [3], the mortality at 3.5 µg/mL is 100%.
